Test [1] deals with T1, GABA-A receptor; alpha-1/beta-3/gamma-2 (Homo sapiens, UniProt P14867+P18507+P28472).
T1 sequence (P14867 whole entry): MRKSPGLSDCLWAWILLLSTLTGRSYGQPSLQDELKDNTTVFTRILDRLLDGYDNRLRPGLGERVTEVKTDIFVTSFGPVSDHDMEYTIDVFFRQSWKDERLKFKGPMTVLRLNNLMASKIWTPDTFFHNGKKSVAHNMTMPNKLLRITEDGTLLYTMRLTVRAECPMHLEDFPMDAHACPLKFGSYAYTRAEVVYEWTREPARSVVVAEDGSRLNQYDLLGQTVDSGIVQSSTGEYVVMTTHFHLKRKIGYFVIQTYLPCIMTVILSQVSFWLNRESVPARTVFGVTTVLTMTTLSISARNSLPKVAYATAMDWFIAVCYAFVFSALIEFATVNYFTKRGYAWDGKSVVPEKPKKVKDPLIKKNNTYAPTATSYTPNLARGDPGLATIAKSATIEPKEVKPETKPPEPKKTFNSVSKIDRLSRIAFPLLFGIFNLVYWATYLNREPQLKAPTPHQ
T1 sequence (P18507 whole entry): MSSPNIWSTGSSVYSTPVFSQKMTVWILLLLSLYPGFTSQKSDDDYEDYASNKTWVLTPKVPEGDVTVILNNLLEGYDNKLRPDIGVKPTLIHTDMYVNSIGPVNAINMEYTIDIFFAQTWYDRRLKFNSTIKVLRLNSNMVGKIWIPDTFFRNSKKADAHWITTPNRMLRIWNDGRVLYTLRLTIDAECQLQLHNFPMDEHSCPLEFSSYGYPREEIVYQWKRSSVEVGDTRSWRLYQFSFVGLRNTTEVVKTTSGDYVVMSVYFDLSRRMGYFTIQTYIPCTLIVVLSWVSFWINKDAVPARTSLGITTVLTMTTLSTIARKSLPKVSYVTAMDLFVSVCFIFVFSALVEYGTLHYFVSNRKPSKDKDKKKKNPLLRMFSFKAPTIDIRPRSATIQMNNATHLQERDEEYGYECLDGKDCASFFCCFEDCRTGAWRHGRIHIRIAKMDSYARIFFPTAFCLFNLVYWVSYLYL
T1 sequence (P28472 whole entry): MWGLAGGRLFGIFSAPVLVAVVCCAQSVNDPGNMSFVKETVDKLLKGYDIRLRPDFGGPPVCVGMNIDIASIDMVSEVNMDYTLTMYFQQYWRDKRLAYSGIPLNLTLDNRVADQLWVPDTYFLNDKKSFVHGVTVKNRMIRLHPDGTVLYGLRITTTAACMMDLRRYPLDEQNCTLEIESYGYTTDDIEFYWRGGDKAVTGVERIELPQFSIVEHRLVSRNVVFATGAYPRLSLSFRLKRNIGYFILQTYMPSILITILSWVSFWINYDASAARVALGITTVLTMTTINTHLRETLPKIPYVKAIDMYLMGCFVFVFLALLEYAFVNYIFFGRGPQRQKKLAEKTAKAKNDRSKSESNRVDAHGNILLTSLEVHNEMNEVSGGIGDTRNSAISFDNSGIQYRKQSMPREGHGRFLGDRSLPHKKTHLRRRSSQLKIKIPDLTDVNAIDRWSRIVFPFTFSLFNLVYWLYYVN
Nature of the test: Inhibition of [3H]-Ro- 15-1788 binding to human GABA-A receptor alpha-1-beta-3-gamma-2 expressed in L(tk-) cells. The class given is cell-based.

The target of test [2] is T2, GABA-A receptor; alpha-3/beta-3/gamma-2 (Homo sapiens, UniProt P18507+P28472+P34903).
T2 sequence (P18507 whole entry): T1 sequence (P18507 whole entry)
T2 sequence (P28472 whole entry): T1 sequence (P28472 whole entry)
T2 sequence (P34903 whole entry): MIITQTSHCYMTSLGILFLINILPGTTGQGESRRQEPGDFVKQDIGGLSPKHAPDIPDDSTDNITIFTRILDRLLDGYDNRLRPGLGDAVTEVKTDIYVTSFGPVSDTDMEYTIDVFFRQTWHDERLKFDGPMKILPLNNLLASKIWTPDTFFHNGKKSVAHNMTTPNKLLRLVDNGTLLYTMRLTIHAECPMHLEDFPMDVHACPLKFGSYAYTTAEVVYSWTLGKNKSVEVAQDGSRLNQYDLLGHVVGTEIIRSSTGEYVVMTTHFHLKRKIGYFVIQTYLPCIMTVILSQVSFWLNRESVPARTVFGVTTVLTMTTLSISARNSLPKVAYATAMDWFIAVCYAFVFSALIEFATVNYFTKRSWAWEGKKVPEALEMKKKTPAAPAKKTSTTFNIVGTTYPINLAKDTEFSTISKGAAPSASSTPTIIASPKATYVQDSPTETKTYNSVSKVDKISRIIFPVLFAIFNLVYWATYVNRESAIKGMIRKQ
Nature of the test: Inhibition of [3H]-Ro- 15-1788 binding to human GABA-A receptor alpha-3-beta-3-gamma-2 expressed in L(tk-) cells. The format is cell-based.

For test [3], the target named is T3, GABA-A receptor; alpha-1/beta-3/gamma-2 (Homo sapiens) (UniProt P14867+P18507+P28472). Put plainly: Effective current to modulate GABA-mediated chloride ion flux through GABA-A receptor alpha-1-beta-3-gamma-2 expressed in L(tk-) cells. The class given is functional, cell-based.
The target in test [4] is T4, GABA-A receptor; alpha-3/beta-3/gamma-2 (Homo sapiens) (UniProt P18507+P28472+P34903). Nature of the test: Effective current to modulate GABA-mediated chloride ion flux through GABA-A receptor alpha-3-beta-3-gamma-2 expressed in L(tk-) cells. The class given is functional, cell-based.
For test [5], the target named is T3, GABA-A receptor; alpha-1/beta-3/gamma-2 (Homo sapiens). Put plainly: Effective concentration to modulate GABA-mediated chloride ion flux through GABA-A receptor alpha-1-beta-3-gamma-2 expressed in L(tk-) cells. The class given is functional, cell-based.
Test [6] concerns the target T4, GABA-A receptor; alpha-3/beta-3/gamma-2 (Homo sapiens). Nature of the test: Effective concentration to modulate GABA-mediated chloride ion flux through GABA-A receptor alpha-3-beta-3-gamma-2 expressed in L(tk-) cells. The class given is functional, cell-based.

Turning to `O=c1c2c[nH]c3c(c-2nn1-c1ccc(Cl)cc1)CCCC3`, the inhibition constant (Ki) worked out at 0.29 nM in test [1] and 1.5 nM in test [2]. Besides, the Efficacy in test [3] worked out at 0.21; in test [4], 0.45; in test [5] it was 0.14; in test [6], 0.38.

The values are drawn from ChEMBL document CHEMBL1143638, “Pyrazolopyridinones as functionally selective GABAA ligands” (Bioorg Med Chem Lett, 2005).
